This is an account of results in patent publication US10596095B2, “Method for moisturizing skin using P-113 peptide” (PACGEN LIFE SCIENCE CORPORATION, priority 2015, dated 2020).

Series [1] deals with cells. Nature of the series: Cytotoxicity test: MTT assay of cell survival rate. It is filed as cell-based. The note with it: 0, 20, 100 and 200 μg/ml; treated 2 hours; FIG. 2. The procedure:
The cytotoxicity test was performed with Methylthiazol tetrazolium bromide (MTT) assay to test the cell survival rate. The principle was that MTT is a water-soluble yellow dye, after reacting with cells it was reduced by the NADPH in the cells to become an insoluble dark blue crystal, then the blue crystal was dissolved with dimethyl sulfoxide (DMSO), the absorbance value was analyzed, the stronger the cell activity, the darker the blue, and when the cell was dead, it became yellow.
In the present invention, from low to high concentration (0, 20, 100 and 200 μg/ml) of P-113 peptide and the MI preservative were used to treat the cells for 2 hours, then the MTT solution was added for reaction, a spectrophotometer at the wavelength of 595 nm was used to analyze the cell survival rate, and the harmful toxic effect of the cosmetic raw material on the cells was determined.

Series [2] in a line: Moisture absorption rate in Conway's dish at defined relative humidity. The note with it: relative humidity 32%; 30° C., 24 hours; relative to hyaluronic acid at RH 32% set as 100%; FIG. 3. It is filed as physicochemical. The method, then:
The moisture absorption of the P-113 peptide was determined by dissolving magnesium chloride (MgCl2) and potassium chloride (KCl), two types of salts, in water, preparing supersaturated solutions based on the respective solubility of these two types of salts, placing the solutions in sealed bottles to create a relative humidity of 32% and 84%, respectively, then taking P-113 peptide and hyaluronic acid for comparison test. The hyaluronic molecule of hyaluronic acid could carry up to 500 folds of water. The hyaluronic acid is currently recognized as the best moisturizing ingredient, and widely used in cosmetics and skincare products.
0.1 g of P-113 peptide and hyaluronic acid powder were weighed and placed in the internal chamber of a Conway's dish, saturated solutions were added in the external chamber, oil was applied on the rim of the Conway's dish lid to seal it completely, placed in an oven at 30° C. for 24 hours, then samples were removed and weighed.
Moisture absorption rate under different humidity was calculated by the following formula: Moisture absorption rate (%)=[(Wt−W0)/W0]×100%
(§1) wherein W0: the weight (g) of the initial sample, and Wt: the weight (g) of the sample removed after 24 hours.

Series [3] in a line: Moisture retention rate in Conway's dish at defined relative humidity. It is filed as physicochemical. The conditions noted are these: relative humidity 32%; 30° C., 24 hours; reference set as 100%; FIG. 4. The method, then:
In addition, the moisture retention and water absorption of P-113 peptide were determined by dissolving magnesium chloride (MgCl2) and potassium chloride (KCl), two types of salts, in water, preparing supersaturated solutions based on the solubility of these two types of salt respectively, separately placing in sealed bottles to create a relative humidity of 32% and 84% respectively, then using P-113 peptide and hyaluronic acid for comparison test.
0.1 g of P-113 peptide and hyaluronic acid powder were weighed and placed in the internal chamber of a Conway's dish, then 0.1 ml of deionized water was added, saturated solutions were then added in the external chamber, sealed with the Conway's dish lid and placed in the oven at 30° C. for 24 hours, then samples were removed and weighed.
Moisture retention at different humidity levels was calculated according to the following formula: Moisture retention rate (%)=[1−((Wt−W0)/W0)]×100%
as §1

For the compound `Cn1sccc1=O` [MI, Methylisothiazolinone], in series [1], the “cell survival rate (MTT)” value was “decreased the cell survival rate”.
The compound hyaluronic acid yielded a moisture absorption rate in series [2] of 100%. The same compound had a moisture retention rate in series [3] of 100%.
